In US7067482B2, “Cross-linked glycopeptide-cephalosporin antibiotics” (Theravance, Inc., priority 2003, dated 2006):
Converted amounts (≈) assume the structure as drawn.

How the values were obtained:
[1] = test system: methicillin-susceptible Staphylococcus aureus (MSSA 13709) and methicillin-resistant Staphylococcus aureus (MRSA 33591); assay: In vivo efficacy studies in neutropenic mice (thigh infection); conditions: iv, 24 h, read-out: ED50 (dose required to produce 50% of the maximum reduction in thigh titre)
MRSA 33591 [2] = assay: Minimal inhibitory concentration (MIC), broth microdilution, MRSA 33591; conditions: Staphylococcus aureus, read-out: MIC MRSA 33591
MSSA 13709 = assay: Minimal inhibitory concentration (MIC), broth microdilution, MSSA 13709; conditions: Staphylococcus aureus, read-out: MIC MSSA 13709
MRSA 33591 [3] = assay: Time-kill assay; assay type: cell-based, Staphylococcus aureus; conditions: in 24 hours; bactericidal = >=3 log decrease in bacterial cell numbers
Protocol: This time-kill assay is a method for measuring the rate of bactericidal activity of a test compound. These procedures are similar to those described in V. Lorian, “Antibiotics in Laboratory Medicine”, Fourth Edition, Williams and Wilkins (1996), pages 104–105. A rapid time-kill is desirable to quickly prevent bacterial colonization and reduce host tissue damage.
Bacterial inocula were prepared as described in Example 6 for determination of MIC. Bacteria were diluted in prewarmed media in shake flasks and incubated with shaking (200 rpm, 35° C.). At 0, 1, 4, and 24 hours samples were withdrawn from the flasks and bacteria were enumerated by plate counting. Subsequent to the initial sampling, a test compound to be assayed was added to the shake flask culture. Plate counts at these intervals previous to and following addition of the compound were expressed graphically in a time-kill curve. Bactericidal activity is defined as a greater than or equal to 3 log decrease (reduction greater than or equal to 99.9%) in bacterial cell numbers by 24 hours.
By comparison, vancomycin was bactericidal against MRSA 33591 at a concentration of 4 μg/mL in 24 hours.

Which results are given for `CN[C@H](CC(C)C)C(=O)N[C@H]1C(=O)N[C@@H](CC(N)=O)C(=O)N[C@H]2C(=O)N[C@H]3C(=O)N[C@H](C(=O)N[C@H](C(=O)O)c4cc(O)cc(O)c4-c4cc3ccc4O)[C@H](O)c3ccc(c(Cl)c3)Oc3cc2cc(c3O[C@@H]2O[C@H](CO)[C@@H](O)[C@H](O)[C@H]2O[C@H]2C[C@](C)(N)[C@H](O)[C@H](C)O2)Oc2ccc(cc2Cl)[C@H]1O` [Vancomycin, vancomycin]?
ED50 [1]: 9 mg/kg; MIC (MRSA 33591 [2]): 2 µg/mL (≈ 1.38 µM); MIC (MSSA 13709): 1 µg/mL (≈ 0.69 µM); concentration at which bactericidal (MRSA 33591 [3]): 4 µg/mL
